In the test the test system is P. falciparum 3D7 ABS parasites. In words: ABS parasite survival assay, 72 h, flow cytometry. Type of test: cell-based. The note with it: Plasmodium falciparum. For orientation: In flow cytometry, cells or beads pass a laser one at a time.

Among the data in PMC11521309, “A novel 4-aminoquinoline chemotype with multistage antimalarial activity and lack of cross-resistance with PfCRT and PfMDR1 mutants” (PLOS Pathogens, 2024) are IC50 values, retold here.

Like-named read-outs stand apart in the source and are kept apart here.

One may read the IC50 as the midpoint of a concentration-inhibition curve.

As to `COc1cc2nccc(Nc3cccc(Oc4ccccc4)c3)c2cc1OC` [LDT-623], the IC50 is, setting by setting: (3D7, ABS parasites, N = 3, read-out: IC50 3D7) 130 ± 10 nM; (3D7, CQ-sensitive strain, read-out: IC50 3D7) 127 nM; (3D7, read-out: IC50 3D7) 126.6 ± 0.1 nM.
